Test system: EGFR inhibitor resistant NSCLC cell line NCI-H1975
Experiment: in vivo antitumor activity against s.c. NCI-H1975 tumors in athymic mice
Experimental: Female Harlan athymic mice (n=6), bearing s.c NCI-H1975 tumors are treated p.o. with the PI3K inhibitor Compound A at 50 mg/kg every day for the duration of the treatment. * p<0.05 (Dunnet's vs controls).
Non small cell lung carcinoma cell lines with EGFR mutant forms, but refractory to EGFR inhibition therapy, are valuable models to test the sensitivity of PI3K inhibitors like the compounds of formula I in such genetic background. The NCI-H1975 cell line is such a model as is highly tumorigenic in vivo. Moreover, it contains HER1 bearing the T790M gatekeeper mutation that renders the kinase resistant to catalytic inhibition by compounds such as gefitinib. The in vivo antitumor activity of PI3K inhibitors like the compounds of formula I is tested against this EGFR driven and EGFR tyrosine kinase inhibitor resistant tumor model (FIG. 1).

Nc1cc(C(F)(F)F)c(-c2cc(N3CCOCC3)nc(N3CCOCC3)n2)cn1 [Compound A, 5-(2,6-di-morpholin-4-yl-pyrimidin-4-yl)-4-trifluoromethyl-pyridin-2-ylamine]
antitumor activity (tumor growth) (female Harlan athymic mice, s.c. NCI-H1975 tumors (HER1 T790M), 50 mg/kg p.o. every day, p<0.05 Dunnet's vs controls (FIG. 1)): in vivo tumor growth inhibition | mean body weight, control vs treatment group (mice bearing s.c. NCI-H1975 tumors, 50 mg/kg p.o. every day (FIG. 2)): no statistically significant difference in body weight | tolerability (mouse, in vivo, 50 mg/kg): well tolerated
